Assay results as given in US20250049034A1, “Composition” (Syngenta Crop Protection AG, priority 2021, published 2025).

Test: Chemical stability of the active ingredients in the composition
Type: physicochemical
Conditions: in Composition 1
Procedure: The stability of the active ingredients per se were also measured under a wide variation of temperature conditions.

Structure (SMILES) | active ingredient content (2 wks@ 54° C.) | active ingredient content (2 wks@ −18° C.) | active ingredient content (Initial)
CCOc1nc(F)cc2nc(S(=O)(=O)Nc3c(Cl)cccc3C(=O)OC)nn12 [Cloransulam-methyl] | 0.70 % wt. | 0.76 % wt. | 0.77 % wt.
CSc1nnc(C(C)(C)C)c(=O)n1N [Metribuzin] | 7.1 % wt. | 7.1 % wt. | 7.2 % wt.
CCc1cccc(C)c1N(C(=O)CCl)C(C)COC (stereo not drawn) [S-metalachlor, S-metolachlor] | 38.4 % wt. | 38.2 % wt. | 38.5 % wt.
